Test results published in patent publication US9133115B2 (ACHILLION PHARMACEUTICALS, INC., priority 2008, dated 2015).

Tested on: HCV replicon
Experiment: HCV replicon replication assay (NPT ELISA) in Huh-7 replicon-containing cells
Assay type: cell-based
Conditions: Hepatitis C virus, 72 h; HCV replicon in Huh-7 cells, three days incubation; read-out: EC50
Procedure, shortened: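 Huh-7 cells carrying a bicistronic HCV replicon (HCV-IRES-neo, EMCV-IRES-driven NS3–NS5B, 3′-NTR) were seeded at 6000-7500 cells/well, grown 24 h to 60-70% confluence, then treated with graded compound concentrations. Replication was read as NPT level by capture ELISA (rabbit anti-NPTII, Eu-N1 secondary); interferon alpha served as positive control.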

Row | SMILES | EC50
1 | C=C[C@@H]1C[C@]1(NC(=O)[C@@H]1C[C@@H](Oc2cc(-c3ccccc3)nc3cc(OC)ccc23)CN1C(=O)[C@@H](CC(=O)N1CCCCC1)C(C)(C)C)C(=O)NS(=O)(=O)c1ccc(C)cc1 [Compound 69, (2S,4R)-1-((S)-2-tert-butyl-4-oxo-4-(piperidin-1-yl)butanoyl)-4-(7-methoxy-2-phenylquinolin-4-yloxy)-N-((1R,2S)-1-(p-tolylsulfonyl-carbamoyl)-2-vinyl-cyclopropyl)pyr-rolidine-2-carboxamide] | < 1000 nM
2 | C=C[C@@H]1C[C@]1(NC(=O)[C@@H]1C[C@@H](Oc2nc(-c3ccccc3)cc3cc(OC)ccc23)CN1C(=O)[C@@H](CC(=O)N1CCCCC1)C(C)(C)C)C(=O)NS(=O)(=O)C1CC1 [Compound 70, (2S,4R)-1-((S)-2-tert-butyl-4-oxo-4-(piperidin-1-yl)butanoyl)-N-((1R,2S)-1-(cyclo-propylsulfonyl-carbamoyl)-2-vinylcyclopropyl)-4-(6-methoxy-3-phenylisoquinolin-1-yloxy)pyrrolidine-2-carboxamide] | < 1000 nM
3 | C=C[C@@H]1C[C@]1(NC(=O)[C@@H]1C[C@@H](Oc2nc(-c3ccccc3)cc3cc(OC)ccc23)CN1C(=O)[C@@H](CC(=O)N1CCOCC1)C(C)(C)C)C(=O)NS(=O)(=O)C1CC1 [Compound 71, (2S,4R)-1-((S)-2-tert-butyl-4-morpholino-4-oxobutanoyl)-N-((1R,2S)-1-(cyclopropylsulfonyl-carbamoyl)-2-vinylcyclopropyl)-4-(6-methoxy-3-phenylisoquinolin-1-yloxy)pyrrolidine-2-carboxamide] | < 1000 nM
4 | C=C[C@@H]1C[C@]1(NC(=O)[C@@H]1C[C@@H](Oc2cc(-c3ccccc3)nc3cc(OC)ccc23)CN1C(=O)[C@@H](CC(=O)N1CCCCC1)C(C)(C)C)C(=O)NS(=O)(=O)c1cccs1 [Compound 72, (2S,4R)-1-((S)-2-tert-butyl-4-oxo-4-(piperidin-1-yl)butanoyl)-4-(7-methoxy-2-phenylquinolin-4-yloxy)-N-((1R,2S)-1-(thiophen-2-ylsulfonylcarbamoyl)-2-vinylcyclopropyl)pyr-rolidine-2-carboxamide] | < 1000 nM
5 | C=C[C@@H]1C[C@]1(NC(=O)[C@@H]1C[C@@H](Oc2cc(-c3ccccc3)nc3cc(OC)ccc23)CN1C(=O)[C@@H](CC(=O)N1CCCCC1)C(C)(C)C)C(=O)NS(=O)(=O)c1cn(C)cn1 [Compound 73, (2S,4R)-1-((S)-2-tert-butyl-4-oxo-4-(piperidin-1-yl)butanoyl)-4-(7-methoxy-2-phenylquinolin-4-yloxy)-N-((1R,2S)-1-(1-methyl-1H-imidazol-4-ylsulfonylcarbamoyl)-2-vinylcycloprop-yl)pyrrolidine-2-carboxamide] | 1000 to 10000 nM
6 | C=C[C@@H]1C[C@]1(NC(=O)[C@@H]1C[C@@H](Oc2cc(-c3ccccc3)nc3cc(OC)ccc23)CN1C(=O)[C@@H](CC(=O)N1CCC2CCCCC2C1)C(C)(C)C)C(=O)NS(=O)(=O)C1CC1 (stereo partly drawn) [Compound 74, (2S,4R)-1-((2S)-2-tert-butyl-4-(octa-hydroisoquinolin-2(1H)-yl)-4-oxobutanoyl)-N-((1R,2S)-1-(cyclo-propylsulfonyl-carbamoyl)-2-vinylcycloprop-yl)-4-(7-methoxy-2-phenylquinolin-4-yloxy)pyrrolidine-2-carboxamide] | < 1000 nM
7 | C=C[C@@H]1C[C@]1(NC(=O)[C@@H]1C[C@@H](Oc2cc(-c3ccccc3)nc3cc(OC)ccc23)CN1C(=O)[C@@H](CC(=O)N1CCC2(CC1)OCCO2)C(C)(C)C)C(=O)NS(=O)(=O)C1CC1 [Compound 75, (2S,4R)-1-((2S)-2-tert-butyl-4-oxo-4-(1,4-dioxa-8-azaspiro[4.5]decan-8-yl)butanoyl)-N-((1R,2S)-1-(cyclopropylsulfonyl-carbamoyl)-2-vinylcyclopropyl)-4-(7-methoxy-2-phenylquinolin-4-yloxy)pyrrolidine-2-carboxamide] | < 1000 nM
8 | C=C[C@@H]1C[C@]1(NC(=O)[C@@H]1C[C@@H](Oc2cc(-c3ccccc3)nc3cc(OC)ccc23)CN1C(=O)[C@@H](CC(=O)N1CCC(CNC(=O)OC(C)(C)C)CC1)C(C)(C)C)C(=O)NS(=O)(=O)C1CC1 [Compound 76, tert-butyl (1-((S)-3-((2S,4R)-2-((1R,2S)-1-(cyclopropylsulfonyl-carbamoyl)-2-vinylcyclopropyl-carbamoyl)-4-(7-methoxy-2-phenylquinolin-4-yloxy)pyrrolidine-1-carbonyl)-4,4-dimethylpentano-yl)piperidin-4-yl)methylcarbamate] | < 1000 nM
9 | C=C[C@@H]1C[C@]1(NC(=O)[C@@H]1C[C@@H](Oc2cc(-c3ccccc3)nc3cc(OC)ccc23)CN1C(=O)[C@@H](CC(=O)N1CCCCCC1)C(C)(C)C)C(=O)NS(=O)(=O)C1CC1 [Compound 77, (2S,4R)-1-((S)-4-(azepan-1-yl)-2-tert-butyl-4-oxobutanoyl)-N-((1R,2S)-1-(cyclopropyl-sulfonylcarbamoyl)-2-vinylcyclopropyl)-4-(7-methoxy-2-phenylquinolin-4-yloxy)pyrrolidine-2-carboxamide] | < 1000 nM
10 | C=C[C@@H]1C[C@]1(NC(=O)[C@@H]1C[C@@H](Oc2cc(-c3ccccc3)nc3cc(OC)ccc23)CN1C(=O)[C@@H](CC(=O)N1CCC(C(=O)NC)CC1)C(C)(C)C)C(=O)NS(=O)(=O)C1CC1 [Compound 78] | < 1000 nM
11 | C=C[C@@H]1C[C@]1(NC(=O)[C@@H]1C[C@@H](Oc2cc(-c3ccccc3)nc3cc(OC)ccc23)CN1C(=O)[C@@H](CC(=O)N1CC2CCC1C2)C(C)(C)C)C(=O)NS(=O)(=O)C1CC1 (stereo partly drawn) [Compound 79, (2S,4R)-1-((2S)-2-(2-(2-azabi-cyclo[2.2.1]heptan-2-yl)-2-oxoethyl)-3,3-dimethylbutanoyl)-N-((1R,2S)-1-(cyclopropyl-sulfonylcarbamoyl)-2-vinylcyclopropyl)-4-(7-methoxy-2-phenylquinolin-4-yloxy)pyrrolidine-2-carboxamide] | < 1000 nM
12 | C=C[C@@H]1C[C@]1(NC(=O)[C@@H]1C[C@@H](Oc2cc(-c3ccccc3)nc3cc(OC)ccc23)CN1C(=O)[C@@H](CC(=O)N1CCC(C(F)(F)F)CC1)C(C)(C)C)C(=O)NS(=O)(=O)C1CC1 [Compound 80, (2S,4R)-1-((S)-2-tert-butyl-4-oxo-4-(4-(trifluoro-methyl)piperidin-1-yl)butanoyl)-N-((1R,2S)-1-(cyclopropyl-sulfonylcarbamoyl)-2-vinylcyclopropyl)-4-(7-methoxy-2-phenylquinolin-4-yloxy)pyrrolidine-2-carboxamide] | < 1000 nM
13 | C=C[C@@H]1C[C@]1(NC(=O)[C@@H]1C[C@@H](Oc2cc(-c3ccccc3)nc3cc(OC)ccc23)CN1C(=O)[C@@H](CC(=O)N1CC2CC3CC(C2)CC1C3)C(C)(C)C)C(=O)NS(=O)(=O)C1CC1 [Compound 81] | < 1000 nM
14 | C=C[C@@H]1C[C@]1(NC(=O)[C@@H]1C[C@@H](Oc2cc(-c3ccccc3)nc3cc(OC)ccc23)CN1C(=O)[C@@H](CC(=O)N1CCC(F)CC1)C(C)(C)C)C(=O)NS(=O)(=O)C1CC1 [Compound 82, (2S,4R)-1-((S)-2-tert-butyl-4-(4-fluoropiperidin-1-yl)-4-oxobutanoyl)-N-((1R,2S)-1-(cyclopropyl-sulfonylcarbamoyl)-2-vinylcyclopropyl)-4-(7-methoxy-2-phenylquinolin-4-yloxy)pyrrolidine-2-carboxamide] | < 1000 nM
15 | C=C[C@@H]1C[C@]1(NC(=O)[C@@H]1C[C@@H](Oc2cc(-c3ccccc3)nc3cc(OC)ccc23)CN1C(=O)[C@@H](CC(=O)N1CCCC(F)C1)C(C)(C)C)C(=O)NS(=O)(=O)C1CC1 (stereo partly drawn) [Compound 83, (2S,4R)-1-((2S)-2-tert-butyl-4-(3-fluoropiperidin-1-yl)-4-oxobutanoyl)-N-((1R,2S)-1-(cyclopropyl-sulfonylcarbamoyl)-2-vinylcyclopropyl)-4-(7-methoxy-2-phenylquinolin-4-yloxy)pyrrolidine-2-carboxamide] | < 1000 nM
16 | C=C[C@@H]1C[C@]1(NC(=O)[C@@H]1C[C@@H](O)CN1C(=O)[C@@H](CC(=O)N1CCCCC1)C(C)(C)C)C(=O)NS(=O)(=O)C1CC1 [Compound 84, (2S,4R)-1-((S)-2-tert-butyl-4-oxo-4-(piperidin-1-yl)butanoyl)-N-((1R,2S)-1-(cyclo-propylsulfonyl-carbamoyl)-2-vinylcyclopropyl)-4-hydroxypyrrolidine-2-carboxamide] | 1000 to 10000 nM
17 | C=C[C@H]1C[C@]1(NC(=O)[C@@H]1C[C@@H](Oc2cc(-c3ccccc3)nc3cc(OC)ccc23)CN1C(=O)[C@@H](CC(=O)N1CCCCC1)C1CCCC1)C(=O)NS(=O)(=O)C1CC1 [Compound 86, (2S,4R)-1-((S)-2-cyclopentyl-4-oxo-4-(piperidin-1-yl)butanoyl)-N-((1R,2R)-1-(cyclo-propylsulfonyl-carbamoyl)-2-vinylcyclopropyl)-4-(7-methoxy-2-phenylquinolin-4-yloxy)pyrrolidine-2-carboxamide] | < 1000 nM
18 | C=C[C@@H]1C[C@]1(NC(=O)[C@@H]1C[C@@H](Oc2cc(-c3ccccc3)nc3cc(OC)ccc23)CN1C(=O)[C@@H](CC(=O)N1CCCC1)C(C)(C)C)C(=O)NS(=O)(=O)C1CC1 [Compound 87, (2S,4R)-1-((S)-2-tert-butyl-4-oxo-4-(pyrrolidin-1-yl)butanoyl)-N-((1R,2S)-1-(cyclo-propylsulfonyl-carbamoyl)-2-vinylcyclopropyl)-4-(7-methoxy-2-phenylquinolin-4-yloxy)pyrrolidine-2-carboxamide] | < 1000 nM
19 | C=C[C@@H]1C[C@]1(NC(=O)[C@@H]1C[C@@H](Oc2cc(-c3ccccc3)nc3cc(OC)ccc23)CN1C(=O)[C@@H](CC(=O)N1CCC[C@H]1C(=O)N(C)C)C(C)(C)C)C(=O)NS(=O)(=O)C1CC1 [Compound 88, (2S,4R)-1-((S)-2-tert-butyl-4-((S)-2-(dimethylcarbamo-yl)pyrrolidin-1-yl)-4-oxobutanoyl)-N-((1R,2S)-1-(cyclopropylsulfonyl-carbamoyl)-2-vinylcyclopropyl)-4-(7-methoxy-2-phenylquinolin-4-yloxy)pyrrolidine-2-carboxamide] | < 1000 nM
